The first assay concerns the target T1, human Kv 1.5 (Homo sapiens, UniProt P22460).
T1 construct: expressed in transfected cells; host or cells: mammalian L-929 cells (mouse fibroblasts)
In words: block of IKur current in patch clamped L-929 cells expressing human Kv1.5. The format is cell-based. As to conditions: 0.3 μM; patch clamped mammalian L-929 cells stably expressing IKur protein. The text has this: Assays to determine the degree of activity of a compound as an IKur inhibitor are well known in the art and are described in references such as J. Gen. Physiol., 101(4):513-543 (April 1993), and Br. J. Pharmacol., 115(2):267-274 (May 1995).
1. Synders, D. J. et al., “A rapidly activating and slowly inactivating potassium channel cloned from human heart: functional analysis after stable mammalian cell culture expression”, J. Gen. Physiol., 101:513-543 (1993).
2. Zhou, Z. et al., “Block of HERG potassium channels by the antihistamine astemizole and its metabolites desmethylastemizole and norastemizole”, J. Cardiovasc. Electrophysiol., 10(6):836-843 (1999).
T1 sequence (P22460 whole entry): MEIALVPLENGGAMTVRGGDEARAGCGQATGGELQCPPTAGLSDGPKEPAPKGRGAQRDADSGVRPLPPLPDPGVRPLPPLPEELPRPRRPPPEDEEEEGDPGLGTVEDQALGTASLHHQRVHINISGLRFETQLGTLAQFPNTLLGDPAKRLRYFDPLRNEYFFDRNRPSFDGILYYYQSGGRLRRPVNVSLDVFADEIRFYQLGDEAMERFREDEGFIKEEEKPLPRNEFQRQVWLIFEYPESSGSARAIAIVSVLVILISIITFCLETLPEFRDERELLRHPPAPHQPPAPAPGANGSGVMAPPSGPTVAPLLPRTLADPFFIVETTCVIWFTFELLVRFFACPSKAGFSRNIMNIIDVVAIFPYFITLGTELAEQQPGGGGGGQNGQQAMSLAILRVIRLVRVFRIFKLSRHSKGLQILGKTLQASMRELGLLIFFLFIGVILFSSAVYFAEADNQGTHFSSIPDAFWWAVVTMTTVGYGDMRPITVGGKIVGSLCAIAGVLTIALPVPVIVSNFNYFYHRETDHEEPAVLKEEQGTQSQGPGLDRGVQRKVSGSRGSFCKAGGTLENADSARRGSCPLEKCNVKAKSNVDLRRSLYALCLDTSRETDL
In the case of `CC(Nc1nnc(-c2cncc(S(N)(=O)=O)c2)n2ccc(-c3ccccc3)c12)c1ccccn1` (single isomer, unassigned) [Example 5, 5-(8-phenyl-1-(1-(pyridin-2-yl)ethylamino)pyrrolo[1,2-d][1,2,4]triazin-4-yl)pyridine-3-sulfonamide], the “Percentage inhibition of Kv1.5 in L-929 cells at 0.3 μM” value is recorded as 88%.

The same assay, now with this note: L929, 0.3 μM; patch clamped mammalian L-929 cells stably expressing IKur protein; read-out: Percentage inhibition of Kv1.5 in L-929 cells at 0.3 μM.
Take `CC(Nc1nnc(-c2cncc(S(N)(=O)=O)c2)n2ccc(-c3ccccc3)c12)c1ccccn1` (single isomer, unassigned) [Example 6, 5-(8-phenyl-1-(1-(pyridin-2-yl)ethylamino)pyrrolo[1,2-d][1,2,4]triazin-4-yl)pyridine-3-sulfonamide]: the inhibition at 0.3 µM was 92%.
With `NS(=O)(=O)c1cncc(-c2nnc(NCc3ncccc3F)c3c(-c4ccccc4)ccn23)c1` [Example 7, 5-(1-(((3-fluoropyridin-2-yl)methyl)amino)-8-phenylpyrrolo[1,2-d][1,2,4]triazin-4-yl)pyridine-3-sulfonamide], the inhibition at 0.3 µM came to 98%.
Consider `NS(=O)(=O)c1cncc(-c2nnc(NCc3c(F)cccc3F)c3c(-c4ccccc4)ccn23)c1` [Example 9, 5-(1-(2,6-difluorobenzylamino)-8-phenylpyrrolo[1,2-d][1,2,4]triazin-4-yl)pyridine-3-sulfonamide], for which the inhibition at 0.3 µM turned out to be 92%.
As for `NS(=O)(=O)c1cncc(-c2nnc(Nc3cccc(F)c3)c3c(-c4ccccc4)ccn23)c1` [Example 2, 5-(1-(3-Fluorophenylamino)-8-phenylpyrrolo[1,2-d][1,2,4]triazin-4-yl)pyridine-3-sulfonamide], the inhibition at 0.3 µM turned out to be 91%.
The same measure, in the same setting: the value for `NS(=O)(=O)c1cncc(-c2nnc(NCc3ccccn3)c3c(-c4ccccc4)ccn23)c1` [Example 4, 5-(8-phenyl-1-(pyridin-2-ylmethylamino)pyrrolo[1,2-d][1,2,4]triazin-4-yl)pyridine-3-sulfonamide] was 86%; that for `NS(=O)(=O)c1cncc(-c2nnc(NCc3ccccc3F)c3c(-c4ccccc4)ccn23)c1` [Example 8, 5-(1-(2-fluorobenzylamino)-8-phenylpyrrolo[1,2-d][1,2,4]triazin-4-yl)pyridine-3-sulfonamide] was 93%; that for `NS(=O)(=O)c1cncc(-c2nnc(NCc3ccccc3)c3c(-c4ccccc4)ccn23)c1` [Example 1, 5-(1-(Benzylamino)-8-phenylpyrrolo[1,2-d][1,2,4]triazin-4-yl)pyridine-3-sulfonamide] was 89%.
Same read-out and setting: the value for `NS(=O)(=O)c1cc(-c2nnc(NCc3ccccn3)c3c(-c4ccccc4)ccn23)cnc1C(F)F` [Example 3, 2-(Difluoromethyl)-5-(8-phenyl-1-(pyridin-2-ylmethylamino)pyrrolo[1,2-d][1,2,4]triazin-4-yl)pyridine-3-sulfonamide] was 95%.

Source of the values: patent publication US9403834B2, “Pyrrolotriazines as potassium ion channel inhibitors” (BRISTOL-MYERS SQUIBB COMPANY, priority 2013, dated 2016).
